From patent US20240197700A1, “Methods and Compositions for Treating Lysosomal Storage Disorders” (Sanford Health, priority 2021, published 2024)
Entries after “also recorded” stand apart in the source; their conditions may differ.

Assays:
[1] = tested on: NCL MEFs; assay: Autofluorescent storage material (ASM) in Batten disease mouse embryonic fibroblasts; assay type: cell-based
Procedure: (§1) Specific experimental details are included in figure legends. In general, after collection and preparation, MEFs and PNCs were dosed with vehicle or AF38469 (40 nM, 400 nM. or 4 μM) on DIV3 and DIV5. On DIV7, cells were treated with the following dyes: Hoechst 33342 (1:1000 dilution), LysoTrackerT™ Red DND-99 (1:10,000 dilution), fixed, and imaged. Mice were given vehicle or AF38469 (78.125 μg/ml, 3.125 μg/ml, 0.3125 μg/ml or 0.03125 μg/ml equating approximately to 250 μg/mouse/day, 10 μg/mouse/day, 1 μg/mouse/day, and […], respectively, given a mouse's daily water intake of approximately 3.2 ml per day) in drinking water beginning at wean. Body weight was measured bi-weekly, and a force actimeter test was performed on Cln2^R207X mice at 10 weeks of age. Body weight was measured every month for Cln3^Δex7/8 mice. At 11 and 16 weeks of age, respectively, Cln2^R207X and Cln3^Δex7/8 mice along with age matched wild type control mice were CO2 euthanized and intracardially perfused with PBS. Brains were collected and placed on a 1 mm sagittal brain block. Brains were sliced at the midline and 3 mm right of the midline. One hemisphere was fixed in 4% PFA and sectioned at 50 microns on a vibratome. Immunohistochemistry was performed on free-floating sections. For mitochondrial ATP synthase subunit C (SubC), glial fibrillary acidic protein (GFAP), and cluster of differentiation 68 (CD68) immunolabeling, primary antibodies included anti-SubC (Abcam, ab181243; 1:1000), anti-GFAP (Dako, Z0334; 1:5000), anti-CD68 (AbD Serotec, MCA1957; 1:2000), and secondary antibodies included anti-rabbit biotinylated (Vector Labs, BA-1000 1:1000) and anti-rat (Vector Labs, BA-9400 1:1000). Coverslips were mounted on slides using antifade-mounting media and were stored in the dark before imaging. Sections were imaged and analyzed using an Aperio Digital Pathology Slide Scanner (AT2) and associated software. Images were extracted from S1BF of the somatosensory cortex and the VPM/VPL of the thalamus, with multiple images taken of multiple tissues from each animal.
• An increase in percent area or total area of positive autofluorescent storage material (ASM) signal in untreated NCL MEFs or PNCs relative to age-matched, wild type MEFs or PNCs is considered an increase in the accumulation of autofluorescent storage material, reflecting disease-related lysosomal dysfunction. • A decrease in percent area or total area of positive autofluorescent storage material signal in AF38469 treated MEFs and PNCs relative to age-matched, vehicle treated MEFs and PNCs is considered a reduction in the accumulation of autofluorescent storage material and thus a decrease in disease-related lysosomal dysfunction. • LysoTracker™ is an acidophilic dye that labels lysosomes and accumulation increases with an increase in lysosome size or number. Cell and mouse models of lysosomal storage disorders often have increased accumulation of lysosomes and therefore have a stronger LysoTracker™ signal. […]

[2] = tested on: Cln3^Δex7/8 mice; assay: Microglial activation (CD68) in brain of Cln3^Δex7/8 mice; assay type: in vivo, mouse; conditions: for microglial activation (CD68): VPM/VPL of the thalamus and somatosensory cortex
Procedure: FIG. 22(A-B). Short-term chronic treatment with semaglutide impacts glial activation in Cln3^Δex7/8 mice. Beginning at wean, wild type and Cln3^Δex7/8 mice were treated with vehicle or semaglutide 2.571 μg/mouse, 25.71 μg/mouse) through subcutaneous injections three times a week until sacrifice at 16 weeks. Upon sacrifice, a hemisphere of the brain was sectioned at 50 microns on a vibratome; DAB staining immunohistochemistry was then performed using anti-GFAP (Dako, Z0334; 1:5000), anti-CD68 (AbD Serotec, MCA1957; 1:2000), anti-rabbit biotinylated (Vector Labs, BA-1000 1:1000), and anti-rat (Vector Labs, BA-9400 1:1000). Sections were imaged and analyzed using an Aperio Digital Pathology Slide Scanner (AT2) and associated software. Images were extracted from S1BF of the somatosensory cortex, the CA3 of the hippocampus, and the VPM/VPL of the thalamus, key brain regions for Batten disease pathology. Percent area of immunoreactivity were quantified using a threshold analysis in ImageJ™. Statistical analyses were performed using GraphPad Prism™ (v8.4.3; San Diego, CA). […] Increasing concentrations of semaglutide and corresponding genotypes are shown along the x-axis. Nested one-way ANOVA. Mean±S.E.M. Sidak's multiple comparisons test. Compared to the wild type vehicle treated group #p<0.05, ##p<0.01, ###p<0.001, ####p<0.0001. Compared to mutant vehicle treated group *p<0.05, **p<0.01, ***p<0.001, ****p<0.0001.
as §1
Short-term chronic treatment with AF38469 impacts glial activation in Cln3^Δex7/8 mice. Beginning at wean, wild type and Cln3^Δex7/8 mice were treated with vehicle (0.2408% DMSO) or AF38469 (0.03125 μg/ml, 0.3125 μg/ml, 3.125 μg/ml, 78.125 μg/ml) continuously through the drinking water continuing until sacrifice at 16 weeks. […]

Compound: semaglutide
- accumulation of autofluorescent storage material (ASM) ([1]; semaglutide 10 nM, 100 nM, 1 μM, Cln1^R151X, Cln2^R207X, Cln3^Δex7/8, Cln6^nclf, Cln8^mnd MEFs): had no impact
- accumulation of microgliosis (CD68) ([2]; semaglutide 2.571 μg/mouse, 25.71 μg/mouse s.c., S1BF, CA3, VPM/VPL, vs vehicle Cln3^Δex7/8): had no significant effect
- CD68 immunoreactivity ([2]; semaglutide lower dose 2.571 μg/mouse s.c., S1BF, CA3, VPM/VPL, relative to wild type): reduced CD68 immunoreactivity to levels indistinguishable from wild type; also recorded: restored CD68 immunoreactivity to wild type levels

Compound: CC[C@H](C)[C@H](N)C(=O)NCCN1CCOCC1 [LM11A-31, N-[2-(morpholin-4-yl)ethyl]-L-isoleucinamide]
- accumulation of autofluorescent storage material (ASM) ([1]; LM11A-31 100 nM, 1 μM, 10 μM, Cln1^R151X, Cln6^nclf, Cln8^mnd MEFs, DIV7): did not reduce
- accumulation of autofluorescent storage material (ASM) ([1]; LM11A-31 (mid to high doses), Cln2^R207X and Cln3^Δex4/8 (so in the source) MEFs): trended towards reductions; also recorded: decreasing trend
- microglial activation (CD68) ([2]; LM11A-31 0.6 mg/mL): had no impact
- levels of CD68 ([2]; LM11A-31 0.6 mg/mL, thalamus): trends towards decreased levels

Compound: Cc1cccc(NC(=O)c2ccc(C(F)(F)F)cc2C(=O)O)n1 [AF38469, 2-((6-methylpyridin-2-yl)carbamoyl)-5-(trifluoromethyl)benzoic acid]
- accumulation of autofluorescent storage material (ASM) ([1]; 40 nM, 400 nM, 4 μM, Cln1^R151X, Cln2^R207X, Cln3^Δex7/8, Cln6^nclf, Cln8^mnd MEFs, DIV7): significantly reduced
- accumulation of autofluorescent storage material (ASM) ([1]; Cln11^−/− MEFs, DIV7): did not have an impact
- microglial activation (CD68) ([2]; AF38469 higher doses 3.125 μg/ml, 78.125 μg/ml): increased or had no impact; also recorded: had no impact
- microglial activation (CD68) ([2]; AF38469 lower doses 0.03125 μg/ml, 0.3125 μg/ml): significantly and potently decreased
